In brackets after ≈: the same amount, converted by molar mass. Where two headings read alike, the source gives them in different places. Peptide text beside a SMILES is read from it.
Key:
S. aureus ATCC 25923 = type: cell-based, Staphylococcus aureus; conditions: for MBC S. aureus 25923: ATCC 25923, 24 h; for MIC S. aureus 25923: broth microdilution, Mueller Hinton broth, 24 h at 37 °C, absorbance 620 nm, in duplicate, strain sensitive to vancomycin
Description: (§1) The minimum inhibitory concentration (MIC) was determined using a broth microdilution assay. Specifically, […] of Mueller Hinton broth and 90 μL of peptide (initial concentration 444 μg/mL) were added to a 96-well plate, with serial dilutions (200, 100, 50, 25, 12.5, and […] μg/mL). Then, 10 μL (5 × 10^5 CFU/mL) of inoculum was added to each well, and the final volume in each well was 100 μL. They were incubated for 24 h at 37 °C, and absorbance at 620 nm was measured using the ELISA reader. To determine the minimum bactericidal concentration (MBC), an aliquot was taken from each well and placed on a Mueller Hinton Agar plate. After 24 h of incubation at 37 °C, the MBC was determined. Each of these tests was performed in duplicate.

E. coli ATCC 25922 = type: cell-based, Escherichia coli
Description: as §1

MCF-7 cell line = conditions: cited from earlier work
Description: (§2) Finally, the cytotoxic effect of the conjugates over fibroblasts, MCF-7, and HeLa cell lines was evaluated (Figure 7).

HeLa cell line = conditions: cited from earlier work
Description: as §2

C. albicans SC5314 (S) = tested on: C. albicans SC5314 (S); parameters: method as in PMID 36358216; conditions: sensitive to fluconazole; cited from earlier work
[1] = tested on: C. albicans 256 HUSI-PUJ (R); parameters: method as in PMID 36358216; conditions: resistant to fluconazole; cited from earlier work
erythrocytes = type: cell-based
Description: First, 5.0 mL of heparinized peripheral blood was centrifuged at 1000 rpm for 7 min. The erythrocyte fraction was suspended in […] saline solution (SS) and washed twice by centrifugation at 1000 rpm for 7 min. The erythrocytes (2% hematocrit) were incubated with peptide (ranging from 6.2 to 200 µg/mL) for 2 h at 37 °C. SS was used as a negative control, while distilled water was used as a positive control. The mixtures were centrifuged, the supernatants were collected, and the absorbance was determined to be 540 nm.

Row | Compound | MBC S. aureus 25923 (S. aureus ATCC 25923) | MIC S. aureus 25923 (S. aureus ATCC 25923) | MBC E. coli 25922 (E. coli ATCC 25922; ATCC 25922, 24 h) | MIC E. coli 25922 (E. coli ATCC 25922; ATCC 25922, 24 h) | also measured
1 | N=C(N)NCCC[C@H](NC(=O)[C@H](Cc1c[nH]c2ccccc12)NC(=O)[C@H](CCC(N)=O)NC(=O)[C@H](Cc1c[nH]c2ccccc12)NC(=O)[C@H](CCCNC(=N)N)NC(=O)[C@@H](N)CCCNC(=N)N)C(N)=O [RRWQWR] (H-RRWQWR-NH2) | > 203 µM | > 203 µM | 203 µM (≈ 200 µg/mL) | 203 µM (≈ 200 µg/mL) | 
2 | (RRWQWR)4-K2-C2 |  |  |  |  | Cytotoxicity against MCF-7 (MCF-7 cell line): exhibited cytotoxicity; Cytotoxicity against HeLa (HeLa cell line): exhibited cytotoxicity
3 | CC(C)C[C@H](NC(=O)[C@H](CC(C)C)NC(=O)[C@@H](N)CCCNC(=N)N)C(=O)N[C@@H](CCCNC(=N)N)C(N)=O [RLLR] (H-RLLR-NH2) | > 359 µM | > 359 µM | > 359 µM | > 359 µM | 
4 | RLLRRLLR |  |  |  |  | MIC C. albicans strain ATCC SC5314 (C. albicans SC5314 (S)): > 183 µM; MIC clinical isolate C. albicans 256 HUSI-PUJ [1]: > 183 µM
5 | CTpH(F)-(AAC-(K)-RRWQWR)4 (rctt) [tetravalent (peptide)4-resorcinarene conjugate with four copies of RRWQWR on CTpH(F)] |  |  |  |  | Hemolytic effect at the MIC values (erythrocytes): Neither of the two conjugates exhibited a significant hemolytic effect; MBC E. coli 25922 (E. coli ATCC 25922; aliquot of each MIC well on Mueller Hinton Agar, 24 h at 37 °C, in duplicate): 36 µM; MIC E. coli 25922 (E. coli ATCC 25922; broth microdilution, Mueller Hinton broth, 24 h at 37 °C, absorbance 620 nm, in duplicate, strain susceptible to ciprofloxacin): 36 µM

— paper PMC10135297, “Peptide-Resorcinarene Conjugates Obtained via Click Chemistry: Synthesis and Antimicrobial Activity” (Antibiotics, 2023)
